Common to all, as to type: in vivo
A short description of series [1]: glycemia evaluation in C57Bl/6 mice. The following applies: for blood glucose concentration: IP 3 mg/kg, t0, 5 h, 24 h; for blood glucose concentrations: oral gavage 3 mg/kg/day for 3 days, t0, 5 h after each gavage, 24 h after last. The procedure:
Male mice (n=8 per group) were assigned to the following test groups. A dosage of 3 mg/kg/mouse was administered daily for 3 consecutive days in 200 μl of:
Group A: saline and DMSO carrier (referred to throughout the drawings and examples describing the in vivo experiment as “Control-Saline”, “Vehicle”, “Saline” or “Control”), at the equivalent concentration administered the other test groups (2.5%). Group B: Compound 1b (C5) at 3 mg/Kg: (total of 9 mg/Kg). Group C: Compound 1a (C13) at 3 mg/Kg: (total of 9 mg/Kg). Group D: L-798106 at 3 mg/Kg: (total of 9 mg/Kg).
A. For glycemia evaluation, blood glucose was measured from the vein tail at the following time points (t(h)—time in hours): t=0—before gavage; t=5 h—following each gavage on days 1, 2 and 3 (5G1, 5G2 and 5G3, respectively); and t=24 h—after the last gavage (24G3).
A. Glycemia evaluation: Glucose concentration was measured in blood obtained from the vein tail of C57Bl/6 mice (n=12/group). Results are represented in FIGS. 13A-13D, in which, t(h) represents time in hours as follows: before injection (t0), at time 5 h (t5) and 24 h (t24) after injection of 200 μl saline/DMSO (FIG. 13A); of 3 mg/kg of C5 (FIG. 13B); C13 (FIG. 13C); or L-798106 (FIG. 13D), by using Accu-Chek performa glucometer.

Series [2] deals with db/db mice. Description: intraperitoneal glucose tolerance test (IPGTT). As to the method:
Lepr^db/db homozygotes (db/db) and heterozygote Lepr^db/+ (wild type) mice were treated daily with 2.5 mg/kg/day oral administration of the Vehicle, the commercial EP3 antagonist L-798106 and the compounds C5 and C13 for 8 weeks, as described in Example 9. A glucose tolerance test (Intraperitoneal glucose tolerance test, IPGTT) was performed following four weeks and eight weeks of the onset of treatment, as follows. Glucose (1 g/kg) was injected following 8 hours of fasting, and blood glucose was measured at baseline and at 30-, 60-, 90- and 120-minutes post glucose administration.
Heterozygote (wild type) and diabetic db/db mice were treated daily with the Vehicle, L-798106 and the compounds C17 and C20 for 8 weeks, essentially as described in Example 9. A glucose tolerance test (IPGTT) was performed essentially as described in Example 10.

A short description of series [3]: blood insulin concentrations by serum C-peptide ELISA. The conditions noted are these: 8 weeks oral treatment; vs vehicle-treated diabetic mice. The procedure: At the end of the 8 week-long period of treatment as described in Example 9, mice were sacrificed and blood samples were collected, and analyzed for different parameters as detailed below.
Blood insulin concentrations.
Blood insulin concentrations. Following 8 weeks of treatment, blood samples were collected and the levels of insulin in the collected sera were assessed essentially as described in Example 12. The results are presented in FIG. 28, in which the different test groups as presented in FIG. 28 are represented as described in Example 14 and “ns” indicates non-significant differences. The numbers of tested mice are as follows: vehicle (n=10), L-798106 (n=10), C17 (n=5), C20 (n=5).
(In an ELISA, binding on a coated surface is turned into a signal by an enzyme label.)

Series [4] in a line: kidney function parameters in sera of C57Bl/6 mice. The procedure: Blood was collected by cardiac puncture, and 50 μl were collected in EDTA containing tubes for cell blood count (CBC). Further, 200-300 μl of blood was centrifuged and serum was collected for biochemical analysis.
D. Effects of orally administered compounds on kidney function parameters: Creatinine and Urea levels were measured in the sera obtained from mice 24 h after the third gavage with saline/DMSO (Control Saline); 3 mg/kg/day Compound C5; Compound C13 or the EP3 antagonist L-798106. […] 12 B for Urea.
D. Kidney function parameters: Creatinine (FIG. 15A) and Urea (FIG. 15B) were measured in sera obtained from mice, 24 h after injection of either Saline/DMSO (Control Saline), Compound C5 or L-798106.

Series [5] has as its system db/db mice. Description: Insulin Tolerance Test (ITT). The conditions noted are these: 8 weeks oral treatment; for glucose levels after insulin injection (insulin sensitivity), db/db mice: 0.75 U/kg insulin, all time points, vs vehicle. The procedure: An Insulin Tolerance Test (ITT) was conducted to determine the effect of the test compounds on insulin resistance, following oral administration of Vehicle or the tested compounds as described in Example 9. To this end, the different treated groups were further subjected to a subsequent 5-hour fast and then injected with 0.75 U/kg insulin. Blood glucose was measured at the time of insulin injection (baseline level) and at the indicated time intervals thereafter. Blood glucose levels and AUC of the wild-type mice are presented in FIGS. 19A-19B respectively, and blood glucose levels and AUC of the db/db mice are presented in FIGS. 19C-19D respectively. The different test groups as presented in FIGS. 19A-19D are represented as described in Example 9.
To determine the effect of the C17 and C20 compounds on insulin resistance, an ITT was conducted essentially as described in Example 11. Blood glucose levels and AUC of the wild-type mice are presented in FIGS. 27A-27B respectively (n=5-15), and blood glucose levels and AUC of the db/db mice are presented in FIGS. 27C-27D respectively (n=5-10). The different test groups as presented in FIGS. 27A-27D are represented as described in Example 14.

The nature of series [6]: blood insulin levels in C57Bl/6 mice (ELISA). The procedure: B. For measurements of blood insulin levels, insulin was measured in blood obtained from the vein tail of C57Bl/6 mice (n=8/group) 24 h (t24) after the third gavage with vehicle (Control-Saline); 3 mg/kg/day Compound C5; Compound C13 or the EP3 antagonist L-798106 (total 9 mg/kg) using ELISA mouse insulin kit (Mercodia). Five samples randomly chosen from each group were measured.
B. Blood insulin levels: Insulin was measured in sera obtained from mice injected with either Saline/DMSO (control), Compound 5 (C5); Compound C13 (C13) or L-798106, using ELISA mouse insulin kit according to the manufacturer's instructions (Mercodia). Five samples randomly chosen from each group were measured. […] Similarly, to normal blood glucose, the mice keep their blood insulin concentrations within the normal range.

Setting [7] is: 8 weeks oral 2.5 mg/kg/day, glucose 1 g/kg, all time points, vs vehicle.
The mark [8] stands for this setting: oral 3 mg/kg/day, 24 h after third gavage.
The mark [9] stands for this setting: oral 3 mg/kg/day (total 9 mg/kg), 24 h after third gavage.

“Also recorded” adds a separate entry of the source.

Regarding `CC[C@H](C)c1ccc(S(=O)(=O)Nc2ccccc2C(=O)N2C[C@@H](C)O[C@@H](C)C2)cc1` [Compound C5, 4-((S)-sec-butyl)-N-(2-((2S,6R)-2,6-dimethylmorpholine-4-carbonyl)phenyl)benzenesulfonamide], the blood glucose concentration entry in series [1] is given as “no differences were observed”. The blood glucose concentrations result in series [1] is “no significant alterations”. Also, the “hyperglycemia in IPGTT, db/db mice” value in series [2] (setting [7]) was “significantly alleviated hyperglycemia”; in series [2] (four weeks of treatment), “reduction of hyperglycemia could already be seen”. For the same molecule, the “blood insulin levels (serum C-peptide) in diabetic mice” value (from here on “blood insulin levels (serum C-peptide)”) in series [3] is “the differences did not reach statistical significance”. For the same molecule, the Creatinine entry in series [4] (IP, 24 h after injection) is given as “no statistically significant differences”; in series [4] (setting [8]) it was “No statistically significant differences”. Further, the Urea entry is “no statistically significant differences” in series [4] (IP, 24 h after injection) and “No statistically significant differences” in series [4] (setting [8]). The “glucose levels after insulin injection (insulin sensitivity), db/db mice” value (“glucose levels after insulin injection” for short) in series [5] is listed as “Improve Insulin Sensitivity”. For the same molecule, the blood insulin levels entry in series [6] (IP single dose 3 mg/kg) and in series [6] (setting [9]) was “no statistically significant differences” each time.
As for `CC[C@@H]1CC[C@H](C)N1C(=O)c1cccc(NS(=O)(=O)c2ccc(C)c(F)c2)c1` [Compound C13, N-(3-((2R,5S)-2-ethyl-5-methylpyrrolidine-1-carbonyl)phenyl)-3-fluoro-4-methylbenzenesulfonamide], the blood glucose concentration result in series [1] is recorded as “no differences were observed”. Further, the blood glucose concentrations entry in series [1] is on record as “no significant alterations”. For the same molecule, the entries for the “hyperglycemia in IPGTT, db/db mice” value in series [2] (setting [7]) and in series [2] (four weeks of treatment) were “significantly alleviated hyperglycemia” and “reduction of hyperglycemia could already be seen”, respectively. In addition, the “blood insulin levels (serum C-peptide)” value in series [3] is “the differences did not reach statistical significance”. The Creatinine result is on record as “p-value >0.05” in series [4] (IP, 24 h after injection) and “No statistically significant differences” in series [4] (setting [8]). In addition, the Urea result is listed as “p-value >0.05” in series [4] (IP, 24 h after injection) and “No statistically significant differences” in series [4] (setting [8]). In addition, in series [5], the “glucose levels after insulin injection” value was “Improve Insulin Sensitivity”. The blood insulin levels result in series [6] (IP single dose 3 mg/kg) and in series [6] (setting [9]) was “no statistically significant differences” throughout.
For the molecule `COc1ccc(Br)cc1S(=O)(=O)NC(=O)/C=C/c1ccccc1Cc1ccc2ccccc2c1` [Compound L-798106, (2E)-N-[(5-bromo-2-methoxyphenyl)sulfonyl]-3-[2-(2-naphthalenylmethyl)phenyl]-2-propenamide, reference compound], the blood glucose concentration result in series [1] is “no differences were observed”. For the same molecule, in series [1], the blood glucose concentrations entry is on record as “no significant alterations”. Moreover, the “hyperglycemia in IPGTT, db/db mice” value in series [2] (8 weeks oral 2.5 mg/kg/day, glucose 1 g/kg, all time points, vs vehicle, 2.5 mg/kg/day) was “significantly alleviated hyperglycemia; also recorded: appeared to be statistically more significant”; in series [2] (four weeks of treatment), “reduction of hyperglycemia could already be seen”. Also, the “blood insulin levels (serum C-peptide)” value in series [3] is reported as “the differences did not reach statistical significance”. The Creatinine result in series [4] (IP, 24 h after injection) is recorded as “no statistically significant differences”; in series [4] (setting [8]) it was “No statistically significant differences”. Moreover, the Urea entry was “no statistically significant differences” in series [4] (IP, 24 h after injection) and “No statistically significant differences” in series [4] (setting [8]). The “glucose levels after insulin injection” value in series [5] is on record as “significant decrease in glucose levels”. Further, the “baseline glucose levels in ITT” value in series [5] (5-hour fast) was “reduced baseline glucose levels”. Besides, the blood insulin levels entry in series [6] (IP single dose 3 mg/kg) and in series [6] (setting [9]) was “no statistically significant differences” in each case.
